Percent of control binding data for four compounds are collected here from publication PMC7026418, “The kinase polypharmacology landscape of clinical PARP inhibitors” (Scientific Reports, 2020).

Read-outs that look alike come from different tables or passages of the source.

Some targets named below: BMPR1B (Homo sapiens, UniProt O00238); PKN1 (Homo sapiens, UniProt Q16512); MAPKAPK2 (Homo sapiens, UniProt P49137); PRKCQ (Homo sapiens, UniProt Q04759); DAPK2 (Homo sapiens, UniProt Q9UIK4); EIF2AK1 (Homo sapiens, UniProt Q9BQI3).
What all share (test): biochemical
Holding throughout (parameters): DiscoveRx KINOMEscan active site-directed competition binding; percent of control kinase bound to immobilised ligand

In test [1] the target is T1, ABL1(F317I)-nonphosphorylated (Homo sapiens, UniProt P00519, F317I).
T1 construct: nonphosphorylated

The next test deals with T2, PRKD3 (Homo sapiens, UniProt O94806).
T2 sequence (O94806 1-890): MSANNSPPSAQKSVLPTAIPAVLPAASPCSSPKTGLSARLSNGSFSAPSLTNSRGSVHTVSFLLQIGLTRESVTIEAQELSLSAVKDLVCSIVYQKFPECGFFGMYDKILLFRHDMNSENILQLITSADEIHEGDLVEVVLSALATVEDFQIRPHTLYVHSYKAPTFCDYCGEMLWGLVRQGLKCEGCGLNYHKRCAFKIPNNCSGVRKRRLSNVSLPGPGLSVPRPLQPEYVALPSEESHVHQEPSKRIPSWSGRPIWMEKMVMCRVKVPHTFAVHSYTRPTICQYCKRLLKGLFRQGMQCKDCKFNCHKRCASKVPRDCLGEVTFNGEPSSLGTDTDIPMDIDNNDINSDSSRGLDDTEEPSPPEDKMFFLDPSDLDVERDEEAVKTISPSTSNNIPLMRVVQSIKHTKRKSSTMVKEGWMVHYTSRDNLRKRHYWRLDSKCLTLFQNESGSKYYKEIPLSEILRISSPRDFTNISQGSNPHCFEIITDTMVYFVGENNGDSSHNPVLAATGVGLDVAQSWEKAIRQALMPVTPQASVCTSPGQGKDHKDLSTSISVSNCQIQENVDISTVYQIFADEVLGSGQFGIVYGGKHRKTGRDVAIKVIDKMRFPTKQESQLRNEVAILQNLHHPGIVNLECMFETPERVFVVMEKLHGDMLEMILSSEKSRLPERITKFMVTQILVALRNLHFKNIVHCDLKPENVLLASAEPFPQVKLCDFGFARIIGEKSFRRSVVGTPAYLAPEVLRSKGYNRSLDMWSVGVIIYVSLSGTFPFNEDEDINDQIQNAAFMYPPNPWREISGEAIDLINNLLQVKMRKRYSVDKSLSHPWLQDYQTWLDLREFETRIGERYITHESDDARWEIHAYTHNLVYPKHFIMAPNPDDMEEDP

The next test concerns the target T3, CHEK1 (Homo sapiens, UniProt O14757).
T3 sequence (O14757 1-476): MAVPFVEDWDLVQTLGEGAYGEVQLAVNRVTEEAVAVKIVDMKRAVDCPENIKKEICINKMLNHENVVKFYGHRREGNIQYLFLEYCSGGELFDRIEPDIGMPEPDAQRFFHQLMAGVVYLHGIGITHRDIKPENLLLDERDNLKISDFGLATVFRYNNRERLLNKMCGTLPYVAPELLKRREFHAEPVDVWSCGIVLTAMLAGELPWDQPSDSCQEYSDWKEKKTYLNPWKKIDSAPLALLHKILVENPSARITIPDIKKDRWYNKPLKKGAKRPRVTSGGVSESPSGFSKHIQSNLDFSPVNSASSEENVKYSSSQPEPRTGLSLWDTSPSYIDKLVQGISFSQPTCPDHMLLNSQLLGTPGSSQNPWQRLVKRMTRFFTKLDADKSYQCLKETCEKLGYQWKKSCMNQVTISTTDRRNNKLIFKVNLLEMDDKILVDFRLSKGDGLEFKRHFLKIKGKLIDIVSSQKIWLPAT

For test [2], the target named is T4, JAK1(JH2domain-pseudokinase) (Homo sapiens, UniProt P23458).
T4 construct: JH2domain-pseudokinase

For another test, the target named is T5, FLT3(ITD) (Homo sapiens, UniProt P36888, ITD).
T5 sequence (P36888 564-993): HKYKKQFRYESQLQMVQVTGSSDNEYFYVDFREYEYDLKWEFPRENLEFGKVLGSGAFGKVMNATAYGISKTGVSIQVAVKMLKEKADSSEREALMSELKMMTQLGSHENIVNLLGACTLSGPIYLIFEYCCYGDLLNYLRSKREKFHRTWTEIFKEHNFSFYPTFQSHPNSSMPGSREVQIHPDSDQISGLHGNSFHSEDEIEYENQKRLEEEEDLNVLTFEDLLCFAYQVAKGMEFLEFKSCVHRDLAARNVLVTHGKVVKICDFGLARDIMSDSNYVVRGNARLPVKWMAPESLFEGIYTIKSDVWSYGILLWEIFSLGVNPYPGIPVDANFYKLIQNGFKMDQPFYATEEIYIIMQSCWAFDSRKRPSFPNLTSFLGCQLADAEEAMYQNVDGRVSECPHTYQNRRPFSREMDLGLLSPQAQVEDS

Setting [3] is: read-out: Rucaparib / %Ctrl @ 10000nM, binding competition, % of control.
The mark [4] stands for this setting: read-out: Talazoparib (BMN 673) / %Ctrl @ 10000nM.
The mark [5] stands for this setting: read-out: Niraparib (MK-4827) / %Ctrl @ 10000nM.
[6] abbreviates: read-out: Olaparib / %Ctrl @ 10000nM.

Sequence of BMPR1B (O00238 whole entry): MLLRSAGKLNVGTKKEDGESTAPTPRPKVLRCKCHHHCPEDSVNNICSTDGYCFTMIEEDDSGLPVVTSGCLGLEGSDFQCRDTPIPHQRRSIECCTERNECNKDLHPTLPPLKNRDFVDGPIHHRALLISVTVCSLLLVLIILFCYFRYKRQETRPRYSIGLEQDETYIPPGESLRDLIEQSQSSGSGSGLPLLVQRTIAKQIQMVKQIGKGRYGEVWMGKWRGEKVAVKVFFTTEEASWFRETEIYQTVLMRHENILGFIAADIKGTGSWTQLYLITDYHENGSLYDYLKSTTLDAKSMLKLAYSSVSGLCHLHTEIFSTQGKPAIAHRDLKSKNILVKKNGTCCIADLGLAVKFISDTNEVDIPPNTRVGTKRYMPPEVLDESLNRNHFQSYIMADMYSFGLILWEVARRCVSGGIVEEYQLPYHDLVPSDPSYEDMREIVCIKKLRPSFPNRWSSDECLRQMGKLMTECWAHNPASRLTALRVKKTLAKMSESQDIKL
Sequence of PKN1 (Q16512 whole entry): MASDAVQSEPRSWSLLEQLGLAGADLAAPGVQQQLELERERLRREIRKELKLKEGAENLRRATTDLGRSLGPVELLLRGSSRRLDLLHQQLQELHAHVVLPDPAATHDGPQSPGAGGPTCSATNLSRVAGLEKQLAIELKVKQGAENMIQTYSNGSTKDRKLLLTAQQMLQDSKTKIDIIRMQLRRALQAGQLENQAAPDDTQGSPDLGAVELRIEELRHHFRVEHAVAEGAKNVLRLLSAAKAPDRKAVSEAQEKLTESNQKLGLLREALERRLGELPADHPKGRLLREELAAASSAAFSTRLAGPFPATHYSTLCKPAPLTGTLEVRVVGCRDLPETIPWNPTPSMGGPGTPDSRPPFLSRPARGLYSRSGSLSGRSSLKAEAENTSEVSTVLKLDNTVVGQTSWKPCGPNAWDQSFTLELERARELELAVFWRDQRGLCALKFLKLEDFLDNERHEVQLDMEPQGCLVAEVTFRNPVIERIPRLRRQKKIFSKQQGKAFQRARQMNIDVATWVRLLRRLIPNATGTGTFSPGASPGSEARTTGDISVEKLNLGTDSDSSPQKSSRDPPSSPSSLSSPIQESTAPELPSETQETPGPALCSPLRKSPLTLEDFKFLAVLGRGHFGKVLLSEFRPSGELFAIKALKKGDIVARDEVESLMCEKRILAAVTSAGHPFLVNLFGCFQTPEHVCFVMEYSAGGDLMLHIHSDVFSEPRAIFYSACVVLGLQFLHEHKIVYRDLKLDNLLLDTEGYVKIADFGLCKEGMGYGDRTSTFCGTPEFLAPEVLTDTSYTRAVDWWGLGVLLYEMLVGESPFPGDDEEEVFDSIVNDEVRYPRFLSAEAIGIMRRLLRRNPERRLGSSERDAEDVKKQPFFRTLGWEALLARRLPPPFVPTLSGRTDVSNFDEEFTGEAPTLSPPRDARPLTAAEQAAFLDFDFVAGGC
T1 sequence (P00519 whole entry F317I): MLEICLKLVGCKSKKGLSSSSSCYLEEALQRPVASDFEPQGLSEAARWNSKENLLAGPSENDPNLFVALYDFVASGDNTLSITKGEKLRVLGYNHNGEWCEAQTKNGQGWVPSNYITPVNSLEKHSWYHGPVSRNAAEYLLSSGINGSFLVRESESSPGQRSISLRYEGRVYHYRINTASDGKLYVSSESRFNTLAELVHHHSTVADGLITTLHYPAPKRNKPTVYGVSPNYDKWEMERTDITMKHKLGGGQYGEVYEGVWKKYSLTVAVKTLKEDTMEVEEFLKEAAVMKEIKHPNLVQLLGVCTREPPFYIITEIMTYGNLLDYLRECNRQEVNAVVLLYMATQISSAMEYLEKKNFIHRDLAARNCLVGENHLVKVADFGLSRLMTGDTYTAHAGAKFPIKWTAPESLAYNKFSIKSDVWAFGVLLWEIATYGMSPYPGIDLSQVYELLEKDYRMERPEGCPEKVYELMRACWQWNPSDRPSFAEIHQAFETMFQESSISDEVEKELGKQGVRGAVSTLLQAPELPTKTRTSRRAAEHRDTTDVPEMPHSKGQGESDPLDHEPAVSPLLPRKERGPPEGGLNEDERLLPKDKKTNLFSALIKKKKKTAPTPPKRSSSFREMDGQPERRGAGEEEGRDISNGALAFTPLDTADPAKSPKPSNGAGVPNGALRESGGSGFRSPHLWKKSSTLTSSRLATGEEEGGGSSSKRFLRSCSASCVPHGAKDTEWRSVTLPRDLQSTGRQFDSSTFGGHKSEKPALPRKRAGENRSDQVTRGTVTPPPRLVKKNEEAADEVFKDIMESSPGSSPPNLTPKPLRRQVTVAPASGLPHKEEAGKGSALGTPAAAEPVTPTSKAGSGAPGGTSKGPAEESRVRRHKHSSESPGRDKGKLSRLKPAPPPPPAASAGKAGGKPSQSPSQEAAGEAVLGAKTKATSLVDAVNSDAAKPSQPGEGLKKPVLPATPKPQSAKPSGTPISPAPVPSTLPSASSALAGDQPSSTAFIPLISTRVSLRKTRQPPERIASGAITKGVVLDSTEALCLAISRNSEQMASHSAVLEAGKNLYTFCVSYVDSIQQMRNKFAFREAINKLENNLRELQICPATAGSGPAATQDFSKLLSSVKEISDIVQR
Sequence of DAPK2 (Q9UIK4 whole entry): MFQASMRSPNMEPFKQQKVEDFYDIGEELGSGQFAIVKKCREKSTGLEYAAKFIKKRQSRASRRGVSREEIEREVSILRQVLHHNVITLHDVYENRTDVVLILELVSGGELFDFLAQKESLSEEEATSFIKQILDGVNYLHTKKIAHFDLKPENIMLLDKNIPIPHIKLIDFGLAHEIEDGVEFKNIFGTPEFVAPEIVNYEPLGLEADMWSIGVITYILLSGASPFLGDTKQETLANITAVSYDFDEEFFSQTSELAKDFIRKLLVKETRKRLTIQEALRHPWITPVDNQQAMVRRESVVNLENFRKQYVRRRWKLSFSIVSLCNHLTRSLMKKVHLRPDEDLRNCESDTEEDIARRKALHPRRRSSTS
Sequence of EIF2AK1 (Q9BQI3 whole entry): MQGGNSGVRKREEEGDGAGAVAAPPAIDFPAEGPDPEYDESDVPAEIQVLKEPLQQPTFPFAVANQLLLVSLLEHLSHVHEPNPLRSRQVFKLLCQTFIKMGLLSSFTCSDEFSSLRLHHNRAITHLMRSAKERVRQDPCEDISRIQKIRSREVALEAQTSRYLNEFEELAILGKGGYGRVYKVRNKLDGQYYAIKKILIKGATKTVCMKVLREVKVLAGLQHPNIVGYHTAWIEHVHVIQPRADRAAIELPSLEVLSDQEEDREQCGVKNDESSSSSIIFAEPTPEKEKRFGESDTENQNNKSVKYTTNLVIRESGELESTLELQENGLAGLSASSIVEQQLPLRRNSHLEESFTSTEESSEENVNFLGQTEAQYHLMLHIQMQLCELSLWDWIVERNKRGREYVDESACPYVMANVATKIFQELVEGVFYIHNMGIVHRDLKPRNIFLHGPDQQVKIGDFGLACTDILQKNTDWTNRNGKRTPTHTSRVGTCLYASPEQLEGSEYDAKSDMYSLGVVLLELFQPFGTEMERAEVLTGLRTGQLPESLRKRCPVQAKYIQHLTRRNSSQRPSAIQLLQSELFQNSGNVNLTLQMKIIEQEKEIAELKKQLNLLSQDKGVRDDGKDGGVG
Sequence of PRKCQ (Q04759 whole entry): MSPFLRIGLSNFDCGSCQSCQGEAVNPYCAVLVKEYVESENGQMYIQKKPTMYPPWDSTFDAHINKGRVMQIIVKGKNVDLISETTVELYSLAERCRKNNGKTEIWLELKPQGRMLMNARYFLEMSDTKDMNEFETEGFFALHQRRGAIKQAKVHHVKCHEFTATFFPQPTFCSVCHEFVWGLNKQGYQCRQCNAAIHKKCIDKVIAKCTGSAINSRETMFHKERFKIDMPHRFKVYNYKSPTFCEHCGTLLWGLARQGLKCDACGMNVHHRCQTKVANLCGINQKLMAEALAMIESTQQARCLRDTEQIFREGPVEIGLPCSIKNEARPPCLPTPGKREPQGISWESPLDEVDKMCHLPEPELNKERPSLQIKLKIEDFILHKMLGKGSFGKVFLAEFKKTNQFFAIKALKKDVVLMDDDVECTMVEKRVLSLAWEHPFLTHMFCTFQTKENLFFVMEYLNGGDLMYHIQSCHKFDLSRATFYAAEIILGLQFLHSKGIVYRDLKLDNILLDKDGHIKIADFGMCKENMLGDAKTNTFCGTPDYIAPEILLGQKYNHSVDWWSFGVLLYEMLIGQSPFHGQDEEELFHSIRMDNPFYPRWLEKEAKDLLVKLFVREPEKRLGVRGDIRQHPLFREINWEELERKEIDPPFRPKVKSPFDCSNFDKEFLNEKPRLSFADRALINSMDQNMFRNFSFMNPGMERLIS
Sequence of MAPKAPK2 (P49137 whole entry): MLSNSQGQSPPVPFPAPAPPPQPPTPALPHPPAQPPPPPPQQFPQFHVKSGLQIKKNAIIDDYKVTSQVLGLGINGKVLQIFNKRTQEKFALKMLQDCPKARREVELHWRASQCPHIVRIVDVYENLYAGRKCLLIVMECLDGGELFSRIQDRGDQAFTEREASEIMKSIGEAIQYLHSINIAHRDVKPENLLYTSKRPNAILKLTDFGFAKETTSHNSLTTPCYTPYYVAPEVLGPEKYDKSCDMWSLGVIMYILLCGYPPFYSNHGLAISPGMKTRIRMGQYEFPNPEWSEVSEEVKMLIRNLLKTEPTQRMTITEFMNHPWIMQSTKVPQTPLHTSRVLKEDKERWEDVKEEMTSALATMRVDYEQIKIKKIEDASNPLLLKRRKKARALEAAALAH

For `CNCc1ccc(-c2[nH]c3cc(F)cc4c3c2CCNC4=O)cc1` [Rucaparib], the percent of control binding at 10 µM at BMPR1B (setting [3]) turned out to be 80%; at PKN1 (setting [3]), 78%; on MAPKAPK2 (setting [3]) it was 100%; on PRKCQ (setting [3]) it was 93%; in [1] (setting [3]), 71%; at PRKD3 (setting [3]), 78%. In addition, the percent of control binding at 10 µM was found to be 37% on DAPK2 (setting [3]), 100% on CHEK1 (setting [3]), 72% on EIF2AK1 (setting [3]) and 0.8% in test [2] (setting [3]).
For the compound `Cn1ncnc1[C@H]1c2n[nH]c(=O)c3cc(F)cc(c23)N[C@@H]1c1ccc(F)cc1` [Talazoparib], the percent of control binding at 10 µM was 100% at BMPR1B (setting [4]); 74% on PKN1 (setting [4]); 100% at MAPKAPK2 (setting [4]); 89% on PRKCQ (setting [4]); 96% in test [1] (setting [4]); 89% on PRKD3 (setting [4]). For the same compound, the percent of control binding at 10 µM on DAPK2 (setting [4]) turned out to be 95%; at CHEK1 (setting [4]), 86%; at FLT3(ITD) (setting [4]) it was 100%; at EIF2AK1 (setting [4]), 100%; in [2] (setting [4]) it was 73%.
For `NC(=O)c1cccc2cn(-c3ccc([C@@H]4CCCNC4)cc3)nc12` [Niraparib], the percent of control binding at 10 µM turned out to be 87% at BMPR1B (setting [5]); 69% on PKN1 (setting [5]); 80% at MAPKAPK2 (setting [5]); 73% on PRKCQ (setting [5]); 86% in [1] (setting [5]); 76% at PRKD3 (setting [5]). In addition, the percent of control binding at 10 µM at DAPK2 (setting [5]) worked out at 81%; at CHEK1 (setting [5]), 72%; at FLT3(ITD) (setting [5]), 92%; at EIF2AK1 (setting [5]) it was 93%.
Regarding `O=C(c1cc(Cc2n[nH]c(=O)c3ccccc23)ccc1F)N1CCN(C(=O)C2CC2)CC1` [Olaparib], the percent of control binding at 10 µM at BMPR1B (setting [6]) was 81%; on PKN1 (setting [6]), 83%; at MAPKAPK2 (setting [6]) it was 84%; on PRKCQ (setting [6]), 95%; in [1] (setting [6]), 66%; at PRKD3 (setting [6]) it was 83%. Also, the percent of control binding at 10 µM at DAPK2 (setting [6]) is 100%; at CHEK1 (setting [6]) it was 79%; at FLT3(ITD) (setting [6]), 100%; on EIF2AK1 (setting [6]) it was 83%; in test [2] (setting [6]), 91%.
